The results in this text go back to patent US11478478B2, “2,3-disubstituted 1-acyl-4-amino-1,2,3,4-tetrahydroquinoline derivatives and their use as bromodomain inhibitors” (GLAXOSMITHKLINE INTELLECTUAL PROPERTY (NO.2) LIMITED, priority 2013, dated 2022).

The target of this assay is T1, BRD4 BD2 (Homo sapiens, UniProt O60885, Y97A).
T1 construct: BRD4 (1-477) (Y97A) and (Y390A); made in house; host or cells: E. coli (pET15b vector)
Briefly: TR-FRET binding assay, BRD4 BD2 (BD1-mutated protein). Particulars: read-out: pIC50 in the BRD4 BD2 assay (converted). The gist of the method: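 Displacement of Alexa Fluor647-labelled bromodomain ligand (at Kd) from 10 nM His-tagged BRD4 (1-477, Y97A) read by Eu-anti-His TR-FRET (665/615 ratio) in pH 7.4 HEPES buffer, 0.5% DMSO. Compound preincubated 30 min at rt, detection ≥30 min. pIC50 derived from four-parameter fit after normalisation to controls.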

Take `CNC(=O)c1ccc2c(c1)[C@@H](Nc1cccc(C)n1)[C@H](C)[C@@H](C1CC1)N2C(C)=O` (single isomer, unassigned) [Example 239b]: the IC50 is 1000 to 100000 nM.

As to `CC(=O)N1c2ccc(C(N)=O)cc2[C@@H](Nc2nccc(C)n2)[C@H](C)[C@H]1C1CC1` (single isomer, unassigned) [Example 397], the IC50 was 1000 to 100000 nM.

For the compound `CNC(=O)c1ccc(N[C@@H]2c3cc(C4=CCOCC4)ccc3N(C(C)=O)[C@H](C3CC3)[C@H]2C)cc1` (single isomer, unassigned) [Example 551a], the IC50 was 1000 to 100000 nM.

In the case of `CC(=O)N1c2ccc(N3CCOCC3)cc2[C@H](Nc2ccccc2)[C@@H](C)[C@@H]1C1CC1` [Example 91a, 1-((2S,3R,4R)-2-cyclopropyyl-3-methyl-6-morpholino-4-(phenylamino)-3,4-dihydroquinolin-1(2H)-yl)ethanone], the IC50 is 100 nM.

On to `CC(=O)N1c2ccc(N3CCOCC3)cc2[C@H](Nc2ccc(C#N)cc2)[C@@H](C)[C@@H]1C` [Example 197, 4-(((2S,3R,4R)-1-acetyl-2,3-dimethyl-6-morpholino-1,2,3,4-tetrahydroquinolin-4-yl)amino)benzonitrile], for which the IC50 is 100 nM.

As for `CC(=O)N1c2ccc(N3CCNCC3)cc2[C@H](Nc2ccc(C#N)cc2)[C@@H](C)[C@@H]1C` [Example 214, 4-(((2S,3R,4R)-1-acetyl-2,3-dimethyl-6-(piperazin-1-yl)-1,2,3,4-tetrahydroquinolin-4-yl)amino)benzonitrile], the IC50 is 100 nM.

Take `CCNC(=O)c1ccc2c(c1)[C@H](Nc1cccc(C)n1)[C@@H](C)[C@H](C1CC1)N2C(C)=O` [Example 248, (2S,3R,4R)-1-acetyl-2-cyclopropyyl-N-ethyl-3-methyl-4-((6-methylpyridin-2-yl)amino)-1,2,3,4-tetrahydroquinoline-6-carboxamide]: the IC50 was 100 nM.

Turning to `COCCNC(=O)c1ccc2c(c1)[C@H](Nc1cccc(C)n1)[C@@H](C)[C@H](C1CC1)N2C(C)=O` [Example 256, (2S,3R,4R)-1-acetyl-2-cyclopropyl-N-(2-methoxyethyl)-3-methyl-4-((6-methylpyridin-2-yl)amino)-1,2,3,4-tetrahydroquinoline-6-carboxamide], the IC50 is 100 nM.

Take `CC(=O)N1c2ccc(C(=O)N[C@@H]3CCOC3)cc2[C@H](Nc2cccc(C)n2)[C@@H](C)[C@@H]1C1CC1` [Example 261, (2S,3R,4R)-1-acetyl-2-cyclopropyl-3-methyl-4-((6-methylpyridin-2-yl)amino)-N—((R)-tetrahydrofuran-3-yl)-1,2,3,4-tetrahydroquinoline-6-carboxamide]: the IC50 is 100 nM.

`CC(=O)N1c2ccc(C(=O)NCCS(C)(=O)=O)cc2[C@H](Nc2cccc(C)n2)[C@@H](C)[C@@H]1C1CC1` [Example 262, (2S,3R,4R)-1-acetyl-2-cyclopropyl-3-methyl-4-((6-methylpyridin-2-yl)amino)-N-(2-(methylsulfonyl)ethyl)-1,2,3,4-tetrahydroquinoline-6-carboxamide]: the IC50 was 100 nM.

As to `CC(=O)N1c2ccc(C(N)=O)cc2[C@H](Nc2nccc(C)n2)[C@@H](C)[C@@H]1C1CC1` [Example 291, (2S,3R,4R)-1-acetyl-2-cyclopropyl-3-methyl-4-((4-methylpyrimidin-2-yl)amino)-1,2,3,4-tetrahydroquinoline-6-carboxamide], the IC50 was 100 nM.

With `CC(=O)N1c2ccc(C#N)cc2[C@H](Nc2cccc(CN(C)C)n2)[C@@H](C)[C@@H]1C1CC1` [Example 298, (2S,3R,4R)-1-acetyl-2-cyclopropyl-4-((6-((dimethylamino)methyl)pyridin-2-yl)amino)-3-methyl-1,2,3,4-tetrahydroquinoline-6-carbonitrile], the IC50 is 1000 to 100000 nM.

`CC(=O)N1c2ccc(C#N)cc2[C@H](Nc2ncccc2C(N)=O)[C@@H](C)[C@@H]1C1CC1` [Example 314, 2-(((2S,3R,4R)-1-acetyl-6-cyano-2-cyclopropyl-3-methyl-1,2,3,4-tetrahydroquinolin-4-yl)amino)nicotinamide]: the IC50 is 100 nM.

In the case of `CC(=O)N1c2ccc(C#N)cc2[C@H](Nc2cccc(C(N)=O)n2)[C@@H](C)[C@@H]1C1CC1` [Example 316, 6-(((2S,3R,4R)-1-acetyl-6-cyano-2-cyclopropyl-3-methyl-1,2,3,4-tetrahydroquinolin-4-yl)amino)picolinamide], the IC50 was 1000 to 100000 nM.

As to `CC(=O)N1c2ccc(C#N)cc2[C@H](Nc2cccc(OCCN)n2)[C@@H](C)[C@@H]1C1CC1` [Example 318, (2S,3R,4R)-1-acetyl-4-((6-(2-aminoethoxy)pyridin-2-yl)amino)-2-cyclopropyl-3-methyl-1,2,3,4-tetrahydroquinoline-6-carbonitrile], the IC50 is 100 nM.

Take `CC[C@H]1[C@H](C)[C@@H](Nc2ccc(C#N)cc2)c2cc(C(=O)O)ccc2N1C(C)=O` [Example 331, (2S,3R,4R)-1-acetyl-4-((4-cyanophenyl)amino)-2-ethyl-3-methyl-1,2,3,4-tetrahydroquinoline-6-carboxylic acid]: the IC50 was 100 nM.

Take `CC(=O)N1c2ccc(C(=O)O)cc2[C@H](Nc2ccc(S(C)(=O)=O)cc2)[C@@H](C)[C@@H]1C1CC1` [Example 332, (2S,3R,4)-1-acetyl-2-cyclopropyl-3-methyl-4-((4-(methylsulfonyl)phenyl)amino)-1,2,3,4-tetrahydroquinoline-6-carboxylic acid]: the IC50 was 1000 to 100000 nM.

Consider `COc1cnc(N[C@H]2c3cc(C(N)=O)ccc3N(C(C)=O)[C@@H](C3CC3)[C@@H]2C)nc1C` [Example 348, (2S,3R,4R)-1-acetyl-2-cyclopropyl-4-((5-methoxy-4-methylpyrimidin-2-yl)amino)-3-methyl-1,2,3,4-tetrahydroquinoline-6-carboxamide], for which the IC50 was 1000 to 100000 nM.

For `CC(=O)N1c2ccc(C(N)=O)cc2[C@H](Nc2cccc(CO)n2)[C@@H](C)[C@@H]1C1CC1` [Example 350, (2S,3R,4R)-1-acetyl-2-cyclopropyl-4-((6-(hydroxymethyl)pyridin-2-yl)amino)-3-methyl-1,2,3,4-tetrahydroquinoline-6-carboxamide], the IC50 was 100 nM.

As for `CC(=O)N1c2ccc(C(N)=O)cc2[C@H](Nc2cccc(F)c2)[C@@H](C)[C@@H]1C1CC1` [Example 359, (2S,3R,4R)-1-acetyl-2-cyclopropyl-4-((3-fluorophenyl)amino)-3-methyl-1,2,3,4-tetrahydroquinoline-6-carboxamide], the IC50 is 100 nM.

As to `COc1cccc(N[C@H]2c3cc(C(N)=O)ccc3N(C(C)=O)[C@@H](C3CC3)[C@@H]2C)c1` [Example 360, (2S,3R,4R)-1-acetyl-2-cyclopropyl-4-((3-methoxyphenyl)amino)-3-methyl-1,2,3,4-tetrahydroquinoline-6-carboxamide], the IC50 was 100 nM.

For the compound `CC(=O)N1c2ccc(C(N)=O)cc2[C@H](Nc2ccc(C#N)cc2)[C@@H](C)[C@@H]1C1CC1` [Example 378, (2S,3R,4R)-1-acetyl-4-((4-cyanophenyl)amino)-2-cyclopropyl-3-methyl-1,2,3,4-tetrahydroquinoline-6-carboxamide], the IC50 was 100 nM.

For `CC(=O)N1c2ccc(C(N)=O)cc2[C@H](Nc2ccc(Cl)cn2)[C@@H](C)[C@@H]1C1CC1` [Example 379, (2S,3R,4R)-1-acetyl-4-((5-chloropyridin-2-yl)amino)-2-cyclopropyl-3-methyl-1,2,3,4-tetrahydroquinoline-6-carboxamide], the IC50 was 100 nM.
